This is an account of results in ChEMBL document CHEMBL3351623, “Pim kinase inhibitors for the treatment of cancer and possibly more” (ACS Med Chem Lett, 2014).

Structures are written as SMILES.

One may read the IC50 as the point on the concentration scale where inhibition reaches its midpoint. Read a low IC50 as greater potency in that assay. Usually EC50 stands for the concentration at which the effect is half-maximal. Read a high EC50 as a need for much substance.

Holding throughout (format): functional, cell-based
The subject of experiment [1] is BaF3. The experiment in a line: Antiproliferative activity against PIM1-dependent mouse BAF3 cells.
Experiment [2] is described as follows: Antiproliferative activity against human MM1S cells. The note with it: MM1.S.
Experiment [3] deals with BaF3. The experiment in a line: Antiproliferative activity against IL3-dependent mouse BAF3 cells.

`Cn1ncc(NC(=O)c2nc(-c3c(F)cccc3F)sc2N)c1[C@]12CC[C@H](O1)[C@@H](N)CC2`: the IC50 with BaF3 [1] turned out to be 19.2 nM.
Consider `C[C@H]1O[C@@H](c2c(NC(=O)c3csc(-c4c(F)cccc4F)n3)cnn2C)C[C@@H](N)[C@]1(C)O` (single isomer, unassigned), for which the half-inhibitory concentration (IC50) in the experiment with BaF3 [1] is 96.8 nM; in the experiment with BaF3 [3], greater than 25000 nM. The compound further had an EC50 in experiment [2] of 6900 nM.
As for `Cn1ncc(NC(=O)c2csc(-c3c(F)cc([C@H]4CCCO4)cc3F)n2)c1[C@@H]1CC[C@@H](N)[C@H](F)CO1` (single isomer, unassigned), the 50% inhibitory concentration (IC50) with BaF3 [1] stood at 37.2 nM; in the experiment on BaF3 [3], 12200 nM. Also, it took 1700 nM to reach a half-maximal effect in experiment [2] (EC50).
